This is an account of results in patent US20230242532A1, “TETRACYCLIC PYRIMIDINONE COMPOUND, PREPARATION METHOD THEREFOR, AND COMPOSITION AND USE THEREOF” (NEUSCO BIOTECH LIMITED, priority 2019, published 2023).

Assay [1] has as its target T1, recombinant human Lp-PLA2 enzyme (Homo sapiens, UniProt Q13093).
T1 sequence (Q13093 22-441): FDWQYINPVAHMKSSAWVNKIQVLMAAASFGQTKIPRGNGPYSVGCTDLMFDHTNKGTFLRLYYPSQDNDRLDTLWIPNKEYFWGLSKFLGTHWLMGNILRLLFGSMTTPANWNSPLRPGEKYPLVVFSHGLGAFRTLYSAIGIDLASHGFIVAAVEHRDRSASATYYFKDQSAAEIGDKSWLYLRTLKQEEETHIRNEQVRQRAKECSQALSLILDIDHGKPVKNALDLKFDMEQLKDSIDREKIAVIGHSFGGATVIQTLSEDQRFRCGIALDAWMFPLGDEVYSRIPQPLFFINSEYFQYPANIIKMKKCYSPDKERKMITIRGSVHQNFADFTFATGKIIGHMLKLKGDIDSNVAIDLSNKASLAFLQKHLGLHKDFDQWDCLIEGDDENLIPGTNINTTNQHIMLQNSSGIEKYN
The assay is described as follows: Recombinant human Lp-PLA2 assay (rhLp-PLA2), PED6 assay. The assay is classed as biochemical. As to the method: (1) Recombinant Human Lp-PLA2 Assay (rhLp-PLA2), Also Referred to as PED6 Assay
PED6 was a fluorescently-labeled phospholipid that could be purchased dorectly from Invitogene or Molecular Probes. […] Once cleaved by the Lp-PLA2 enzyme, it would release the FL group, resulting in enhanced fluorescence.
Assay Method: The compound to be tested (as shown in Table 1) was mixed with a DMSO solution in a volume ratio of 1:3, and diluted to prepare a source plate of a 384-well microplate. Then 0.01 μl of the compound was transferred via an ECHO liquid dispenser from the source plate to a 384-well Greiner 784076 plate, and 5 μl of a buffer consisting of 50 mM HEPES, pH7.4, 150 mM NaCl, and 1 mM CHAPS (the buffer solution containing a recombinant human Lp-PLA2 enzyme at a concentration of 4 nM or 110 pM) was added to each well of the plate. The plate was centrifuged at 500 rpm for 10 seconds. After a 30-min pre-incubation, 5 μl of the above-mentioned buffer was added to a 384-well Greiner 784076 plate, the plate was centrifuged at 500 rpm for 10 seconds.

In assay [2] the target is T2, Lp-PLA2 enzyme in human plasma (Homo sapiens, UniProt Q13093).
T2 construct: from tissue; host or cells: mixed (pooled) human plasma
T2 sequence (Q13093 22-441): T1 sequence (Q13093 22-441)
Put plainly: Assay of Lp-PLA2 in human plasma (Thio-PAF assay). The class given is biochemical. The protocol: (2) Assay of Lp-PLA2 in Human Plasma (Also Referred to as Thio-PAF Assay)
The human plasma assay was conducted using the sulphatide analog of PAF (phosphatidylcholine). After hydrolysis, it would generate phospholipids containing free sulfhydryl groups, which would be subjected to Michael addition with CPM to generate fluorescence-enhancing maleimide. Continuous quantitative analysis of thiol could be conducted by detecting the fluorescence intensity. This assay could be used to detect the inhibitory activity of the Lp-PLA2 inhibitor on the Lp-PLA2 enzyme in human plasma.
Assay Method: The compound to be tested (as shown in Table 2) was mixed with a DMSO solution in a volume ratio of (1:3), and diluted to prepare a source plate of a 384-well microplate. Then 0.01 μl of the compound was transferred via an ECHO liquid dispenser from the source plate to a 384-well Greiner 784076 plate, and 8 μl of pre-aliquoted and frozen mixed human plasma was then added. The plate was centrifuged at 500 rpm for 10 seconds. After a 30-min pre-incubation, 2 μl of a substrate solution, and a buffer containing 2.5 mM 2-thio-PAF (a solution in ethanol), 32 μM CPM (a solution in DMSO) and 3.2 mM N-ethylmaleimide (NEM) (a buffer solution consisting of 50 mM HEPES, pH7.4, 150 mM NaCl, 1 mM CHAPS) was added by a BRAVO liquid handling station to a 384-well Greiner 784076 low-volume plate. Two minutes later, the reaction was quenched with 5 μl of 5% trifluoroacetic acid. After the plate was incubated at room temperature for 40 min in a dark place, the fluorescence intensity was read at ex 380/em 485 with an Envision microplate reader, and the XL fitting model in Excel was used to perform the curve analysis and QC analysis to calculate pIC50.

Where [3] appears, read: PED6 substrate, recombinant human Lp-PLA2 at 4 nM or 110 pM, 30-min pre-incubation, fluorescence ex 480/em 540, read-out: rhLp-PLA2 (pIC50) (converted).
The mark [4] stands for this setting: mixed human plasma, 2-thio-PAF substrate with CPM, 30-min pre-incubation, fluorescence ex 380/em 485, read-out: Thio-PAF (pIC50) (converted).

Where two headings read alike, the source gives them in different places.

For `O=c1nc(OCc2cccc(F)c2F)cc2n1CC13CCC(CC1)N23` [Compound 1], the IC50 in assay [1] is 2.51 nM; in assay [2] it was 100 nM.
Regarding `O=c1nc(OCc2ccc(F)cc2)cc2n1CC13CCC(CC1)N23` [Compound 2], the IC50 was 0.794 nM in assay [1] and 25.1 nM in assay [2].
Taken in the same sequence, the figures for `O=c1nc(OCc2ccc(F)c(F)c2)cc2n1CC13CCC(CC1)N23` [Compound 3] were 0.501 nM and 15.8 nM.
As to `O=c1nc(OCc2cc(F)c(Oc3ccnc(C(F)(F)F)c3)c(F)c2)cc2n1CC13CCC(CC1)N23` [Compound 4], the IC50 in assay [1] (setting [3]) is 0.0398 nM; in assay [2] (setting [4]), 3.98 nM.
For the compound `O=c1nc(OCc2cc(F)c(Oc3ccc(C(F)(F)F)cc3)c(F)c2)cc2n1CC13CCC(CC1)N23` [Compound 5], the IC50 in assay [1] (setting [3]) was 0.0316 nM; in assay [2] (setting [4]), 6.31 nM.
Taken in the same sequence, the figures for `O=c1nc(OCc2cc(F)c(Oc3ccc(C(F)(F)F)nc3)c(F)c2)cc2n1CC13CCC(CC1)N23` [Compound 6] were 0.0501 nM and 7.94 nM.
For `Cc1cc(Oc2c(F)cc(COc3cc4n(c(=O)n3)CC35CCC(CC3)N45)cc2F)ccn1` [Compound 7] the same measures were 0.0398 nM and 3.16 nM.
On to `Cc1ccc(Oc2c(F)cc(COc3cc4n(c(=O)n3)CC35CCC(CC3)N45)cc2F)cn1` [Compound 8], for which the figures for the IC50 in assay [1] (setting [3]) and in assay [2] (setting [4]) were 0.0316 nM and 7.94 nM, respectively.
For `Cc1ncc(Oc2c(F)cc(COc3cc4n(c(=O)n3)CC35CCC(CC3)N45)cc2F)cn1` [Compound 9] the same measures were 0.1 nM and 12.6 nM.
Taken in the same sequence, the figures for `O=c1nc(OCc2cc(F)c(Oc3ccc(Cl)c(C(F)(F)F)c3)c(F)c2)cc2n1CC13CCC(CC1)N23` [Compound 10] were 0.0631 nM and 7.94 nM.
Taken in the same sequence, the figures for `O=c1nc(OCc2cc(F)c(Oc3cccc(C(F)(F)F)c3)c(F)c2)cc2n1CC13CCC(CC1)N23` [Compound 11] were 0.0794 nM and 12.6 nM.
Take `Cc1cc(Oc2c(F)cc(COc3cc4n(c(=O)n3)CC35CCC(CC3)N45)cc2F)ccc1Cl` [Compound 12]: the IC50 in assay [1] (setting [3]) was 0.0794 nM; in assay [2] (setting [4]), 10 nM.
Taken in the same sequence, the figures for `O=c1nc(OCc2cc(F)c(Oc3cnc(C(F)(F)F)nc3)c(F)c2)cc2n1CC13CCC(CC1)N23` [Compound 13] were 0.251 nM and 20 nM.
As for `O=c1nc(OCc2cc(F)c(Oc3ccc(C(F)(F)F)c(Cl)c3)c(F)c2)cc2n1CC13CCC(CC1)N23` [Compound 14], the IC50 in assay [1] (setting [3]) is 0.0794 nM; in assay [2] (setting [4]), 7.94 nM.
As for `O=c1nc(OCc2cc(F)c(Oc3cccc(OC(F)(F)F)c3)c(F)c2)cc2n1CC13CCC(CC1)N23` [Compound 16], the IC50 in assay [1] (setting [3]) was 0.1 nM; in assay [2] (setting [4]) it was 12.6 nM.
As for `O=c1nc(OCc2cc(F)c(Oc3ccc(OC(F)(F)F)c(Cl)c3)c(F)c2)cc2n1CC13CCC(CC1)N23` [Compound 17], the IC50 in assay [1] (setting [3]) was 0.0794 nM; in assay [2] (setting [4]) it was 10 nM.
Taken in the same sequence, the figures for `O=c1nc(OCc2cc(F)c(Oc3ccnc(C(F)(F)F)c3)c(F)c2)cc2n1CC13CCCC(CC1)N23` (stereo not drawn) [Compound 18] were 0.1 nM and 7.94 nM.
For `Cc1ncc(Oc2c(F)cc(COc3cc4n(c(=O)n3)CC35CCCC(CC3)N45)cc2F)cn1` (stereo not drawn) [Compound 19] the same measures were 0.316 nM and 15.8 nM.
